From ChEMBL document CHEMBL1201862, “PubChem BioAssay data set” (2004)
Activity calls are given as the source filed them.

Key:
[1] = P. falciparum late gametocyte killing, dose response, luminescence (AID 1117278); type: functional, cell-based;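 note: gametocytes exposed to compound for 24 hours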
[2] = Jurkat T cell cytotoxicity, dose response, cytotoxicity control for P. falciparum gametocyte viability project, luminescence (AID 1117277); type: functional, cell-based;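 note: potency reflects loss of cellular ATP meaning fewer viable cells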
[3] = NIH:OVCAR-3 ovarian cancer cell cytotoxicity, dose response, PAX8 inhibitor project, plate reader, dry powder samples (AID 743044); type: functional, cell-based
[4] = cytotoxicity in OVCAR8 ovarian cancer cells, dose response, PAX8 project, cell-based, plate reader, dry powder samples (AID 743197); type: functional; settings: OVCAR-8
[5] = IOSE-T80 ovarian epithelial cell cytotoxicity, dose response, cytotoxicity control for PAX8 inhibitor project, plate reader, dry powder samples (AID 743045); type: functional, cell-based
Paired box protein Pax-8 = Paired box protein Pax-8 (Homo sapiens, UniProt Q06710); assay: inhibitors of PAX8-driven TPO luciferase reporter, dose response, RMG-I cells, cherry-pick (AID 687027); type: functional, cell-based;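 note: luciferase reporter driven by Pax8 target thyroperoxidase promoter measured by SteadyGlo luminescence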
Chain of Paired box protein Pax-8 (Q06710 whole entry): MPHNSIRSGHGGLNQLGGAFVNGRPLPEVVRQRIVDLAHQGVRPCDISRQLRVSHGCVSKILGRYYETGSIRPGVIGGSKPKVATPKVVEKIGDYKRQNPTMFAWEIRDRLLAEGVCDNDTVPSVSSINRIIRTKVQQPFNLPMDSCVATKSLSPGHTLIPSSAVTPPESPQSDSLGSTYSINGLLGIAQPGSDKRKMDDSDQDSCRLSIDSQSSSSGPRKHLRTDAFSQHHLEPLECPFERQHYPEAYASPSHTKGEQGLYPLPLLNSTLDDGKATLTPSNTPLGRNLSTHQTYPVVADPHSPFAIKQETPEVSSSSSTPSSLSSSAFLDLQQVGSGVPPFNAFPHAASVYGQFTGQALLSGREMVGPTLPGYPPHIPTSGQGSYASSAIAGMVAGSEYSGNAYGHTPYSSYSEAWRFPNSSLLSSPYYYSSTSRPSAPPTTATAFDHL

[6] = molecular target: FAD-linked sulfhydryl oxidase ALR (Homo sapiens, UniProt P55789); assay: inhibitors of human ALR sulfhydryl oxidase, dose response, biochemical, H2O2 detection, luminescence, cherry-pick (AID 493248)
Chain of FAD-linked sulfhydryl oxidase ALR (P55789 whole entry, the tested form may be a part): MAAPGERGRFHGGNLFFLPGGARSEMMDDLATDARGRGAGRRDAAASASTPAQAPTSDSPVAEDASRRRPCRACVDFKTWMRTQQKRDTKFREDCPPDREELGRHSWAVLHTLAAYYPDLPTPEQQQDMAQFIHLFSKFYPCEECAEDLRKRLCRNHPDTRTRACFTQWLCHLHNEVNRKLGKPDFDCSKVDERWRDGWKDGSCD

[7] = molecular target: Oxysterols receptor LXR-beta (Homo sapiens, UniProt P55055); type: functional, cell-based;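 note: Cell-based luminescence dose-response assay of agonist activity at LXR, run as a confirmatory counterscreen to a daf-12 agonist screen; HEK293 cells with Gal4-LXR fusion and GAL4-driven luciferase reporter; agonist potency from rising luciferase signal of a Gal4-LXR reporter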
Chain of Oxysterols receptor LXR-beta (P55055 whole entry, the tested form may be a part): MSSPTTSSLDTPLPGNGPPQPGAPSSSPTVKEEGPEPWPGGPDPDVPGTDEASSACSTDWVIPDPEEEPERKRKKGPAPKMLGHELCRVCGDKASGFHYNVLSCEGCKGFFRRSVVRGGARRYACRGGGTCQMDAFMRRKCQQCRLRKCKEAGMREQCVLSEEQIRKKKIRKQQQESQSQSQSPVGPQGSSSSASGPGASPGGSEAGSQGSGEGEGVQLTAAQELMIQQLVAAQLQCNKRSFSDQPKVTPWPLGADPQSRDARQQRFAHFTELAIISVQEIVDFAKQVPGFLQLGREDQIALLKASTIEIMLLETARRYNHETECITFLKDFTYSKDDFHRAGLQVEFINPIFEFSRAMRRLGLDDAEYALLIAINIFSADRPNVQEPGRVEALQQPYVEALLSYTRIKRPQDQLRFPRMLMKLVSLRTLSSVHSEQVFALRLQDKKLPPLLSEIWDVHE

HEK293 = assay: cells; type: functional, cell-based; settings: Homo sapiens
[8] = molecular target: T1, Nuclear receptor subfamily 0 group B member 1 (Homo sapiens, UniProt P51843); assay: Luminescence-based cell-based high throughput dose response assay for inhibitors of the orphan nuclear receptor subfamily 0, group B, member 1 (DAX1; NR0B1). [Related pubchem assays (depositor defined):AID504766, AID504790]; type: functional
T1 sequence (P51843 whole entry): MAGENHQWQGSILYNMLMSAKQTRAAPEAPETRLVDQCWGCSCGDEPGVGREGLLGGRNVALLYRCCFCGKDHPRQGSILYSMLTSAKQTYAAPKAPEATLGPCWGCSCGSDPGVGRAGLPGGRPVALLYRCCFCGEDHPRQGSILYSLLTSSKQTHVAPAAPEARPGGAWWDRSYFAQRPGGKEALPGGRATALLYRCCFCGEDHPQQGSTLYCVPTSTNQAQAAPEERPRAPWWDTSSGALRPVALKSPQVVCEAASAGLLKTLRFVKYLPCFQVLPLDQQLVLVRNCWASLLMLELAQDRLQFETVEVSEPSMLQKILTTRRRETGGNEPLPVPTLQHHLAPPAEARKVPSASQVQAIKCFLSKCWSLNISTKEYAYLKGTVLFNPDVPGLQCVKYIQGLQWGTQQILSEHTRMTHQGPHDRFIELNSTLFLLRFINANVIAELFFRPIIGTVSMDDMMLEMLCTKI

[9] = IGROV1 ovarian cancer cell cytotoxicity, dose response, PAX8 inhibitor project, plate reader, dry powder samples (AID 743043); type: functional, cell-based; settings: IGROV-1
[10] = HeLa 2N DNA content increase, dose response, cell-based, IC50 (AID 1117349); type: functional
[11] = HeLa 4N DNA content increase, dose response, cell-based, IC50 (AID 1117351); type: functional
[12] = P. falciparum Dd2 growth inhibitors, dose response, SYBR Green, dry powder samples (AID 1159566); type: functional, cell-based;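 note: potency for growth inhibition with lower SYBR green DNA signal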
[13] = P. falciparum Dd2 growth inhibitors, dose response, SYBR Green, cherry-picked samples (AID 1159567); type: functional, cell-based
[14] = P. falciparum 3D7-ScDHODH growth inhibitors, dose response, SYBR Green, dry powder samples (AID 1159570); type: functional, cell-based;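 note: parasite growth measured after 72 hours of compound exposure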
[15] = P. falciparum ATP4 D1247Y mutant growth inhibitors, dose response, NITD609-resistant line, SYBR Green, dry powder (AID 1159571); type: functional, cell-based;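 note: parasites synchronized at ring stage by sorbitol before testing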
[16] = molecular target: T2, RNA-binding protein pos-1 (Caenorhabditis elegans, UniProt G5EF15); assay: inhibitors of POS-1/mex-3 RNA binding, dose response, biochemical, fluorescence polarization (AID 1964);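 note: purified POS-1 fused to maltose binding protein made in E. coli; potency of compounds blocking POS-1 binding to fluorescent RNA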
T2 sequence (G5EF15 whole entry): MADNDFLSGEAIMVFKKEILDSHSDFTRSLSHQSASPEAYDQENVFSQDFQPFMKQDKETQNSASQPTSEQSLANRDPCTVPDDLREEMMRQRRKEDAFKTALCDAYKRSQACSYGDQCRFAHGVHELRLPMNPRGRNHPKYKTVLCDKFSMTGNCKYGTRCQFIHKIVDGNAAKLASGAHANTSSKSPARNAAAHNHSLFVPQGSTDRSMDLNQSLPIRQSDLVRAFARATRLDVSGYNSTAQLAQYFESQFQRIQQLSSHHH

[17] = molecular target: T3, Zinc finger protein mex-5 (Caenorhabditis elegans, UniProt Q9XUB2); assay: MEX-5/TCR-2 RNA interaction inhibitors, dose response, biochemical, C. elegans, fluorescence polarization (AID 1960)
T3 sequence (Q9XUB2 whole entry): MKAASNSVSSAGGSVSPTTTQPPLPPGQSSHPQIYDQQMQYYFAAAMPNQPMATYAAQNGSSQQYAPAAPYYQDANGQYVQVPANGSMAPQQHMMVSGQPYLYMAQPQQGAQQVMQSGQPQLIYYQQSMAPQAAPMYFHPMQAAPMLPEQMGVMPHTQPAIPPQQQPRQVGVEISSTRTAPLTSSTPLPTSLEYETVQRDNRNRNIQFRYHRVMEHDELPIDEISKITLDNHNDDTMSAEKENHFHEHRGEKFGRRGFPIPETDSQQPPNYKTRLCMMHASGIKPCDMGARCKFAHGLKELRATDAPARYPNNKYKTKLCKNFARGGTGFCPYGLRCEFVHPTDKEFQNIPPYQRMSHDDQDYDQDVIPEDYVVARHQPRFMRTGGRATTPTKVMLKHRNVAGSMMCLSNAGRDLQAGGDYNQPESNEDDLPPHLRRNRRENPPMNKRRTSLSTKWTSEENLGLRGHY

[18] = molecular target: T4, Rac GTPase-activating protein 1 (Homo sapiens, UniProt Q9H0H5); assay: MgcRacGAP GTPase-activating activity inhibitors, confirmation, biochemical, ADP Hunter fluorescence, primary and confirmatory (AID 624330); type: functional
T4 sequence (Q9H0H5 whole entry): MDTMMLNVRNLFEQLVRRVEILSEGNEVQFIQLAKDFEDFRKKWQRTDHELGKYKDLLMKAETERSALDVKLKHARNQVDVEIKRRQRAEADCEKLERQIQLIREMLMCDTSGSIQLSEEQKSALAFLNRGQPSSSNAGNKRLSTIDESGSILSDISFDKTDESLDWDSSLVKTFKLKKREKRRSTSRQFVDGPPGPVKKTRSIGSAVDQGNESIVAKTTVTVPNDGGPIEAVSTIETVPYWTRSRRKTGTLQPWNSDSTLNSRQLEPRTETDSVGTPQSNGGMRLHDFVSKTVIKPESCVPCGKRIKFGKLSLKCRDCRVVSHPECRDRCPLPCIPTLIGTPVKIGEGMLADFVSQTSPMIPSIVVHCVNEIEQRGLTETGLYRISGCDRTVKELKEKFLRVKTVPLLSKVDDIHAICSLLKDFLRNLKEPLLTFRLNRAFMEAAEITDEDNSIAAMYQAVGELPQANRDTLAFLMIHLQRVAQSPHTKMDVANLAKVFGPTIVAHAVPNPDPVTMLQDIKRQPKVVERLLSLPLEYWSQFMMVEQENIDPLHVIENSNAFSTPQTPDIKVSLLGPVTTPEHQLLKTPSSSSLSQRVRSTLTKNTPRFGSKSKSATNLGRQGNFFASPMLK

[19] = HeLa cell cytotoxicity, dose response, cytotoxicity control for MgcRacGAP inhibitor project (AID 624300); type: functional
[20] = molecular target: RNA-editing ligase 1, mitochondrial (Trypanosoma brucei brucei, UniProt P86926); assay: TbREL1 ligase inhibitors, dose response, biochemical, fluorescence, Trypanosoma brucei (AID 1117295); type: functional
Chain of RNA-editing ligase 1, mitochondrial (P86926 whole entry): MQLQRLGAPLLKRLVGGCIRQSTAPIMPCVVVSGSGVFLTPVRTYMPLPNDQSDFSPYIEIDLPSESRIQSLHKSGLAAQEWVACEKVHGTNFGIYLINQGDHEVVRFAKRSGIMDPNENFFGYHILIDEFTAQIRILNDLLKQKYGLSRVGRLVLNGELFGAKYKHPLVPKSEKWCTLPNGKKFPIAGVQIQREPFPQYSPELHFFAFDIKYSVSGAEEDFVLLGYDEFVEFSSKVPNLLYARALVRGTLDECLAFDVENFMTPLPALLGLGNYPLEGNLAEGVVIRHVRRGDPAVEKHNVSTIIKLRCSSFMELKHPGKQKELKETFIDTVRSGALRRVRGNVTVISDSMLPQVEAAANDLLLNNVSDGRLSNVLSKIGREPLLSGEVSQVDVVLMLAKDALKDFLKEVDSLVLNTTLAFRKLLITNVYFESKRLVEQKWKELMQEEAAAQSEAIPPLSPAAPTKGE

Nonstructural protein 1 = Nonstructural protein 1 (Influenza A virus, UniProt Q194T2); type: functional, Influenza A virus (A/California/07/2009(H1N1))
Chain of Nonstructural protein 1 (Q194T2 whole entry): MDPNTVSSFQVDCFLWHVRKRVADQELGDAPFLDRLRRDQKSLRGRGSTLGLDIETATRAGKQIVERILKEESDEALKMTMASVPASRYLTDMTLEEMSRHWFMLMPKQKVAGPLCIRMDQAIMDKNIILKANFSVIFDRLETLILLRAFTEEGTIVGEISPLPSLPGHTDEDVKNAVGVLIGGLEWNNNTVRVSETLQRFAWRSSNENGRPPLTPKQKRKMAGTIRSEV

[21] = molecular target: T5, DNA repair protein RAD52 homolog (Homo sapiens, UniProt P43351); type: functional, biochemical
T5 sequence (P43351 whole entry): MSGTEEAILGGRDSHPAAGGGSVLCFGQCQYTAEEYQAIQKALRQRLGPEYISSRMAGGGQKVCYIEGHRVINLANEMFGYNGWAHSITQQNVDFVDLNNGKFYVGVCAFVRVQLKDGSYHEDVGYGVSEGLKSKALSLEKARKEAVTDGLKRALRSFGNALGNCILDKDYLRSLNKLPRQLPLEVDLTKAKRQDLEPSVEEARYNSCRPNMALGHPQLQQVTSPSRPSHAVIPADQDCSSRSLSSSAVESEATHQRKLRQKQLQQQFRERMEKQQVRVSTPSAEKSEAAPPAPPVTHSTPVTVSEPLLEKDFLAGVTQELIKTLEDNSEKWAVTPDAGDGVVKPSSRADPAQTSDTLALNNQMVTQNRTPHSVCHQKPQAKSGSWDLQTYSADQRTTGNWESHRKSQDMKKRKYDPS

Kallikrein-7 = Kallikrein-7 (Homo sapiens, UniProt P49862); assay: Fluorescence Intensity-based biochemical primary high throughput dose response assay to identify activators of kallikrein-7 (K7) zymogen.
Chain of Kallikrein-7 (P49862 whole entry): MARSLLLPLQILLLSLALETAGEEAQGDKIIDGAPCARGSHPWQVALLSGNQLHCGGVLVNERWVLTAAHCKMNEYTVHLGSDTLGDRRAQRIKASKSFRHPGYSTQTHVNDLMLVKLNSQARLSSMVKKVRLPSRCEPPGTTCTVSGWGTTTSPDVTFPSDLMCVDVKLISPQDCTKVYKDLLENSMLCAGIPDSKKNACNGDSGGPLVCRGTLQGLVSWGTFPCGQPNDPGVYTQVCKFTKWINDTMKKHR

O=[N+]([O-])c1cccc(S(=O)(=O)c2ccc(N3CCCCC3)c([N+](=O)[O-])c2)c1
IC50 [1]: > 109 µM (inactive) | IC50 [2]: > 83.3 µM (inactive)

COc1ccc(-c2ccc3c(c2)[C@H]2[C@H](CCN2S(=O)(=O)c2ccc(OC)cc2)[C@@H](CO)N3C)cc1
AC50 [3]: 15.6 µM (active) | AC50 [4]: 34.7 µM (active) | AC50 [5]: 38.1 µM (active) | AC50 (Paired box protein Pax-8): 9.39 µM (active)

Cc1ccc(N/N=C(\C#N)C(=N)N2CCCCC2)cc1
EC50 (cells): > 67.6 µM (inactive) | AC50 [6]: 0.228 µM (active) | EC50 [7]: > 67.6 µM (inactive) | IC50 (HEK293): > 0.278 µM (active) | IC50 [8]: > 67.5 µM (inactive)

Clc1ccccc1NN=Cc1ccccn1
EC50 (cells): > 67.6 µM (inactive) | EC50 [7]: > 67.6 µM (inactive)

C[C@@H]1CCCCO[C@H](CN(C)C(=O)Nc2ccc(C(F)(F)F)cc2)[C@@H](C)CN([C@@H](C)CO)C(=O)c2cc(NS(=O)(=O)c3ccc(Cl)cc3)ccc2O1
AC50 [9]: 46.1 µM (active) | AC50 [3]: 29.1 µM (active) | AC50 [4]: 36.2 µM (active) | AC50 (Paired box protein Pax-8): 3.44 µM (active)

Nc1nc(=O)n([C@@H]2O[C@H](CO)[C@@H](O)[C@@H]2F)cc1I [FIACITABINE]
IC50 [10]: > 10 µM (inactive) | IC50 [11]: > 10 µM (inactive)

CCS(=O)(=O)N1CCC2(CC1)CN(S(=O)(=O)c1ccc(C)cc1)[C@@H](CO)c1[nH]c3cc(OC)ccc3c12
AC50 [12]: 0.88 µM (active) | AC50 [13]: 1.3 µM (active) | AC50 [14]: 1.04 µM (active) | AC50 [15]: 0.738 µM (active)

Cn1c(N=Nc2ccc(N3CCOCC3)cc2)[n+](C)c2ccccc21
EC50 [16]: > 300 µM (not active) | EC50 [17]: 219 µM (active) | IC50 [18]: 26 µM (active) | CC50 [19]: 100 µM (active) | IC50 [20]: 34 µM (inactive) | IC50 (Nonstructural protein 1): 8.01 µM (active) | AC50 [21]: 2.36 µM (active)

CN1C(=O)c2ccccc2N(C)C1c1ccc2c(c1)OCO2 (stereo unspecified)
EC50 (Kallikrein-7): > 69.5 µM (inactive)
